pIC50: −log10 of the molar value.
Experiments:
HCT-116 [1] = test: Induction of cell cycle arrest in human HCT-116 cells assessed as accumulation of cells at G1 phase at 20 nM after 24 hrs by flow cytometry (reference value: 40.5%); format: functional
HCT-116 [2] = test: Induction of apoptosis in human HCT-116 cells assessed as early apoptotic cells at 20 nM after 24 hrs by annexinV and 7-ADD staining based flow cytometry (reference value: 0.9%); format: functional
HCT-116 [3] = test: Induction of apoptosis in human HCT-116 cells assessed as early apoptotic cells at 10 nM after 24 hrs by annexinV and 7-ADD staining based flow cytometry (reference value: 0.9%); format: functional
A549 = test: Antiproliferative activity against human A549 cells assessed as cell viability after 72 hrs by MTT assay; format: functional
Tubulin (Homo sapiens) [4] = biological target: T1, Tubulin (Homo sapiens) (UniProt P68371+Q9H4B7+P0DPH7+P68366+Q13509+Q71U36+P04350+Q3ZCM7+P07437+P68363+Q9BQE3+Q6PEY2+Q13885+Q9BVA1+Q9BUF5); test: Inhibition of tubulin polymerization in human HCT-116 cells assessed as microtubule spindle formation after 24 hrs by immunofluorescence analysis; format: cell-based; settings: dose 20-40 nM
HCT-116 [5] = test: Antiproliferative activity against human HCT-116 cells assessed as cell viability after 72 hrs by MTT assay; format: functional
HCT-116 [6] = test: Induction of apoptosis in human HCT-116 cells assessed as viable cells at 20 nM after 24 hrs by annexinV and 7-ADD staining based flow cytometry (reference value: 96.7%); format: functional; settings: read-out: Activity
HCT-116 [7] = test: Induction of apoptosis in human HCT-116 cells assessed as late apoptotic cells at 40 nM after 24 hrs by annexinV and 7-ADD staining based flow cytometry (reference value: 1.5%); format: functional
HCT-116 [8] = test: Induction of apoptosis in human HCT-116 cells assessed as viable cells at 10 nM after 24 hrs by annexinV and 7-ADD staining based flow cytometry (reference value: 96.7%); format: functional; settings: read-out: Activity
[9] = biological target: Protein kinase C alpha type (Homo sapiens) (UniProt P17252); test: Inhibition of human recombinant PKCalpha at 10 uM by radiometric assay
[10] = Toxicity in nude mouse xenografted with human HCT-116 cells assessed as change in body weight at 25 mg/kg, po for 21 days (reference value: 2.2%); format: organism-based; settings: in vivo, 504 h, time 21 day
Tubulin (Homo sapiens) [11] = biological target: T1, Tubulin (Homo sapiens); test: Inhibition of tubulin polymerization in human HCT-116 cells assessed as complete microtubule depolymerization at 40 nM after 24 hrs by immunofluorescence analysis; format: cell-based
HCT-116 [12] = test: Induction of cell cycle arrest in human HCT-116 cells assessed as accumulation of cells at G1 phase at 10 nM after 24 hrs by flow cytometry (reference value: 40.5%); format: functional
Tubulin (Homo sapiens) [13] = biological target: T1, Tubulin (Homo sapiens); test: Inhibition of tubulin polymerization in human HCT-116 cells assessed as microtubule network polymerization after 24 hrs by immunofluorescence analysis; format: cell-based; settings: dose 20-40 nM
1-87 tumor cell line = test: (§1) Inhibition of porcine brain tubulin polymerization by fluorescence based assay; settings: Sus scrofa domesticus
[14] = as §1; format: cell-based, Sus scrofa domesticus, 1-87 tumor cell line
[15] = Toxicity in nude mouse xenografted with human HCT-116 cells assessed as change in body weight at 12.5 mg/kg, po for 21 days (reference value: 2.2%); format: organism-based; settings: in vivo, 504 h, time 21 day
HCT-116 [16] = test: Induction of cell cycle arrest in human HCT-116 cells assessed as accumulation of cells at G2/M phase at 10 nM after 24 hrs by flow cytometry (reference value: 16.35%); format: functional
SW-620 = test: Antiproliferative activity against human SW-620 cells assessed as cell viability after 72 hrs by MTT assay; format: functional
HCT-116 [17] = test: Induction of cell cycle arrest in human HCT-116 cells assessed as accumulation of cells at S phase at 10 nM after 24 hrs by flow cytometry (reference value: 43.12%); format: functional
[18] = Cytotoxicity against HUVEC assessed as cell viability after 72 hrs by MTT assay; format: cell-based; settings: human, HUVEC cells
HCT-116 [19] = test: Induction of cell cycle arrest in human HCT-116 cells assessed as accumulation of cells at S phase at 20 nM after 24 hrs by flow cytometry (reference value: 43.12%); format: functional
[20] = biological target: Proto-oncogene tyrosine-protein kinase Src (Homo sapiens) (UniProt P12931); test: Inhibition of human recombinant c-SRC (1-530 aa) at 10 uM by radiometric assay
HCT-116 [21] = test: Induction of apoptosis in human HCT-116 cells assessed as necrotic cells at 10 nM after 24 hrs by annexinV and 7-ADD staining based flow cytometry (reference value: 0.9%); format: functional
HCT-116 [22] = test: Induction of apoptosis in human HCT-116 cells assessed as early apoptotic cells at 40 nM after 24 hrs by annexinV and 7-ADD staining based flow cytometry (reference value: 0.9%); format: functional
HCT-116 [23] = test: Antitumor activity against human HCT-116 cells xenografted in nude mouse assessed as inhibition of tumor growth at 25 mg/kg, po for 21 days; format: functional; settings: HCT-116, po, 504 h, time 21 day, read-out: TGI
HCT-116 [24] = test: Induction of apoptosis in human HCT-116 cells assessed as necrotic cells at 20 nM after 24 hrs by annexinV and 7-ADD staining based flow cytometry (reference value: 0.9%); format: functional
HCT-116 [25] = test: Induction of apoptosis in human HCT-116 cells assessed as late apoptotic cells at 20 nM after 24 hrs by annexinV and 7-ADD staining based flow cytometry (reference value: 1.5%); format: functional
HCT-116 [26] = test: Induction of apoptosis in human HCT-116 cells assessed as late apoptotic cells at 10 nM after 24 hrs by annexinV and 7-ADD staining based flow cytometry (reference value: 1.5%); format: functional
[27] = biological target: Vascular endothelial growth factor receptor 2 (Homo sapiens) (UniProt P35968); test: Inhibition of human KDR expressed in mammalian expression system at 10 uM by radiometric assay
HT-29 = test: Antiproliferative activity against human HT-29 cells assessed as cell viability after 72 hrs by MTT assay; format: functional
HCT-116 [28] = test: Antitumor activity against human HCT-116 cells xenografted in nude mouse assessed as inhibition of tumor growth at 12.5 mg/kg, po for 21 days; format: functional; settings: HCT-116, po, 504 h, time 21 day, read-out: TGI
HCT-116 [29] = test: Induction of apoptosis in human HCT-116 cells assessed as viable cells at 40 nM after 24 hrs by annexinV and 7-ADD staining based flow cytometry (reference value: 96.7%); format: functional; settings: read-out: Activity
HepG2 = test: Antiproliferative activity against human HepG2 cells assessed as cell viability after 72 hrs by MTT assay; format: functional
HCT-116 [30] = test: Induction of apoptosis in human HCT-116 cells assessed as necrotic cells at 40 nM after 24 hrs by annexinV and 7-ADD staining based flow cytometry (reference value: 0.9%); format: functional
[31] = biological target: Tubulin beta (Homo sapiens) (UniProt P68371+Q9H4B7+Q13509+P04350+Q3ZCM7+P07437+Q13885+Q9BVA1+Q9BUF5+A6NNZ2); test: Inhibition of N,N'-Ethylenebis(iodoacetamide) binding to beta-tubulin in human HCT-116 cells assessed as reduction in EBI/beta-tubulin adduct formation preincubated for 2 hrs followed by EBI addition and measured after 1.5 hrs by Western blot analysis; format: cell-based; settings: dose 0.2-25 µM, time 3.5 hrs
HCT-116 [32] = test: Induction of cell cycle arrest in human HCT-116 cells assessed as accumulation of cells at G2/M phase at 20 nM after 24 hrs by flow cytometry (reference value: 16.35%); format: functional

Proto-oncogene tyrosine-protein kinase Src (Homo sapiens), sequence (P12931 2-536 limits assumed): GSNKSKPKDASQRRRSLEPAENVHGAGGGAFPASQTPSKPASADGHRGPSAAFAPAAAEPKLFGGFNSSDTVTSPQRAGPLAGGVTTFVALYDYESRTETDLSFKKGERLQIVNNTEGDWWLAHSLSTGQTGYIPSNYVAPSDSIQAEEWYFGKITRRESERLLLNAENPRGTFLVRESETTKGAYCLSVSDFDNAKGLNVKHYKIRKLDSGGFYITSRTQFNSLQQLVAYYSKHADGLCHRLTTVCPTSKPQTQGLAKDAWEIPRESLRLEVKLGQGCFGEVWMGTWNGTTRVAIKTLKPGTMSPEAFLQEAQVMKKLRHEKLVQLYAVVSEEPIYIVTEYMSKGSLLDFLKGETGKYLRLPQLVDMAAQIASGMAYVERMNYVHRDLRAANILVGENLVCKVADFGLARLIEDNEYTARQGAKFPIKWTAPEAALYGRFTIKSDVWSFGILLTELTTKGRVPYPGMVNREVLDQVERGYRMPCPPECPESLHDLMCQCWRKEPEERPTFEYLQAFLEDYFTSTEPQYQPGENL
Vascular endothelial growth factor receptor 2 (Homo sapiens), sequence (P35968 whole entry): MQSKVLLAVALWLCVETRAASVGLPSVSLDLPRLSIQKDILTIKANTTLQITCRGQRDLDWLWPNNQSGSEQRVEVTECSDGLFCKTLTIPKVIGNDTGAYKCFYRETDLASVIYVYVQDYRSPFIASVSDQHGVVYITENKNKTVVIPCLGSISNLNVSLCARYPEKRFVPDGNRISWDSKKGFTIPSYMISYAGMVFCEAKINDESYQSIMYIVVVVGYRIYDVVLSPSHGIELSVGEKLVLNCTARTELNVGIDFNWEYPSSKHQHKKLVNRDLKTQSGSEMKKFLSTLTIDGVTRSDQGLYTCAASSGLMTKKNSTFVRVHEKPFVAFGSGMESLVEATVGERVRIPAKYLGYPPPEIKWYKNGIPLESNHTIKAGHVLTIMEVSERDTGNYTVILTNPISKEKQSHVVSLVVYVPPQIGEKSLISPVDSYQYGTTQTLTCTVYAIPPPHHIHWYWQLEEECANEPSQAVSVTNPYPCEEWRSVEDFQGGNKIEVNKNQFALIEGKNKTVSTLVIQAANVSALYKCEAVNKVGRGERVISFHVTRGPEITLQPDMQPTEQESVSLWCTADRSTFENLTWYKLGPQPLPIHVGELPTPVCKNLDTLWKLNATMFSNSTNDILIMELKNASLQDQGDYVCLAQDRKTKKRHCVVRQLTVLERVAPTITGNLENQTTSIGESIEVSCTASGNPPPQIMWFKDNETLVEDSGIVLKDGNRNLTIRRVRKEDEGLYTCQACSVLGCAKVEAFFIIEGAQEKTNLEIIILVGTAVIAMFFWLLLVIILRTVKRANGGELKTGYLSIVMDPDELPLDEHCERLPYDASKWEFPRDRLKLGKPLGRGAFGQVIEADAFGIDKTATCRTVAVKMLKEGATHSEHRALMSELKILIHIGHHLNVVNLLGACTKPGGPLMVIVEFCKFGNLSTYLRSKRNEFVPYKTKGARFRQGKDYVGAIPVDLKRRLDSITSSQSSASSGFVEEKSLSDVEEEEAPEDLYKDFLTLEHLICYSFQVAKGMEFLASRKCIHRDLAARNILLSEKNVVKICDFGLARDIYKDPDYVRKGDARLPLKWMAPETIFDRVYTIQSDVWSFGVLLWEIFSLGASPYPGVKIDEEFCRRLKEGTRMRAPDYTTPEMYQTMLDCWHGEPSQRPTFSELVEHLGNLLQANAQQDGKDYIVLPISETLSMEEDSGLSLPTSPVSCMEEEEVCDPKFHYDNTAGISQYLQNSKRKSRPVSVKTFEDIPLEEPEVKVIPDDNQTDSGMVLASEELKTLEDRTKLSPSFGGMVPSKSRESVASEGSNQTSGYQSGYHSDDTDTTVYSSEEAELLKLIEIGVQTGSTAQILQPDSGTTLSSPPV

COc1ccc2c(Nc3cc(OC)c(OC)c(OC)c3)n[nH]c2c1
Activity (HCT-116 [1]): 6.85% | Activity (HCT-116 [2]): 5.2% | Activity (HCT-116 [3]): 5.1% | GI50 (A549): 0.065 µM | inhibition (Tubulin (Homo sapiens) [4]): Dose-dependent effect | GI50 (HCT-116 [5]): 0.041 µM | viability at 0.02 µM (HCT-116 [6]): 79.2% | Activity (HCT-116 [7]): 17.6% | viability at 0.01 µM (HCT-116 [8]): 81.8% | inhibition [9]: 24% | Activity [10]: 1.1% | inhibition (Tubulin (Homo sapiens) [11]): 100% | Activity (HCT-116 [12]): 36.86% | inhibition (Tubulin (Homo sapiens) [13]): Dose-dependent effect | inhibition (1-87 tumor cell line): Dose-dependent effect | pIC50 [14]: 5.32 | Activity [15]: 2.8% | Activity (HCT-116 [16]): 21.57% | GI50 (SW-620): 0.024 µM | Activity (HCT-116 [17]): 41.56% | GI50 at 72 h [18]: > 25 µM | Activity (HCT-116 [19]): 6.04% | inhibition [20]: 35% | Activity (HCT-116 [21]): 3.1% | Activity (HCT-116 [22]): 12.8% | inhibition in vivo at 25 mg/kg (HCT-116 [23]): 59.9% | Activity (HCT-116 [24]): 2.6% | Activity (HCT-116 [25]): 13.1% | Activity (HCT-116 [26]): 10.1% | inhibition [27]: 66% | GI50 (HT-29): 0.096 µM | inhibition in vivo at 12.5 mg/kg (HCT-116 [28]): 34.3% | viability at 0.04 µM (HCT-116 [29]): 66.2% | GI50 (HepG2): 0.053 µM | Activity (HCT-116 [30]): 3.5% | inhibition [31]: Dose-dependent effect | Activity (HCT-116 [32]): 87.12%

COc1ccc(Nc2n[nH]c3ccc(C)cc23)cc1
GI50 (A549): > 25 µM | GI50 (HCT-116 [5]): > 25 µM | GI50 (HepG2): > 25 µM

COc1cc(Nc2n[nH]c3c(C)cccc23)cc(OC)c1OC
GI50 (A549): 4.3 µM | GI50 (HCT-116 [5]): 4.6 µM | GI50 (HepG2): 5.4 µM

COc1ccc(Nc2n[nH]c3cc(F)ccc23)cc1
GI50 (A549): > 25 µM | GI50 (HCT-116 [5]): > 25 µM | GI50 (HepG2): > 25 µM

COc1ccc2c(Nc3ccc(OC)c(OC)c3)n[nH]c2c1
GI50 (A549): > 25 µM | GI50 (HCT-116 [5]): 14.6 µM | GI50 (HepG2): > 25 µM

COc1cc(Nc2n[nH]c3ccc(C)cc23)cc(OC)c1
GI50 (A549): > 25 µM | GI50 (HCT-116 [5]): > 25 µM | GI50 (HepG2): > 25 µM

COc1ccc2c(Nc3ccc4c(c3)OCO4)n[nH]c2c1
GI50 (A549): > 25 µM | GI50 (HCT-116 [5]): > 25 µM | GI50 (HepG2): > 25 µM

O=c1[nH]cc(F)c(=O)[nH]1 [FLUOROURACIL]
Activity [10]: 21.8% | inhibition in vivo at 25 mg/kg (HCT-116 [23]): 45.5%

COc1ccc(Nc2n[nH]c3cc(C)ccc23)cc1OC
GI50 (A549): 0.99 µM | GI50 (HCT-116 [5]): 2.26 µM | GI50 (HepG2): 0.63 µM

COc1cc(Nc2n[nH]c3ccccc23)cc(OC)c1OC
GI50 (A549): 19.4 µM | GI50 (HCT-116 [5]): 18.9 µM | GI50 (HepG2): 24.1 µM

COc1ccc(/C=C\c2cc(OC)c(OC)c(OC)c2)cc1O [COMBRETASTATIN A4]
GI50 (A549): 0.167 µM | GI50 (HCT-116 [5]): 0.006 µM | GI50 (HepG2): 0.002 µM

Cc1ccc2[nH]nc(Nc3ccc4c(c3)OCO4)c2c1
GI50 (A549): > 25 µM | GI50 (HCT-116 [5]): > 25 µM | GI50 (HepG2): > 25 µM
